From PMC5398486, “Cheminformatics-aided discovery of small-molecule Protein-Protein Interaction (PPI) dual inhibitors of Tumor Necrosis Factor (TNF) and Receptor Activator of NF-κB Ligand (RANKL)” (PLoS Computational Biology, 2017)
≈ marks a conversion by molar mass, not a printed value. Read-outs that look alike come from different tables or passages of the source.

Key:
RANKL = target: T1, RANKL (Homo sapiens, UniProt O14788); assay: Fluorescence-based binding affinity assay, RANKL; settings: for 'n' value from Scatchard plot (ligand binding sites per protein molecule): RANKL, binding assay raw data
T1 sequence (O14788 143-317): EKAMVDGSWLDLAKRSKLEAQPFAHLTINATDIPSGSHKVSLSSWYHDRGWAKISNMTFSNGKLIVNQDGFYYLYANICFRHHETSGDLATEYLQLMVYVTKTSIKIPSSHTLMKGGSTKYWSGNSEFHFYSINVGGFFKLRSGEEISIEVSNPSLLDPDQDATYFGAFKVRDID
Procedure: For use in the binding assays, recombinant TNF and RANKL were expressed and purified as previously described.[84–86] Fluorescence intensity was measure with a Synergy H1 Multi-Mode Reader (BioTek) in 96-well microplates (black) at 25°C. […] During preparation of the solutions the buffer was firstly added to all wells followed by the ligand solution and finally the protein was added. All solutions were mixed by pipetting and equilibrated for 1h at 25°C before measurement. […] Experiments were performed for TNF in 10 mM citrate-phosphate (pH 6.5) and for RANKL in 25 mM Tris–HCl buffer, 100 mM NaCl (pH 7.5); both buffers were supplemented with PEG3350 at the concentrations indicated in the respective figures. Kd values were calculated as mean ± SEM from three independent experiments.
Differences in fluorescence intensity between the protein/ligand complex and free protein (or free ligand) were analysed as previously described in [Papaneophytou et al. (2013) ACS Med Chem Lett. 4: 137-141] (Eq. S6) in order to determine the dissociation constant (Kd) of the various protein-ligand systems.
In Eq. (S6) Fobs is the observed fluorescence intensity; FBG is the fluorescence background signal; MFLF [picture] and PF are the molar fluorescence and concentration of free protein, respectively; FR is the fluorescence ratio of bound protein (or bound ligand in the case of a fluorescence ligand); LT and PT are the total concentrations of ligand and protein, respectively. A detailed analysis of the development of the fluorescence ligand-binding assay is given in [Papaneophytou et al. (2013) ACS Med Chem Lett. 4: 137-141].

TNF/TNFR1 interaction = target: T2, TNF/TNFR1 interaction (Homo sapiens, UniProt P01375); assay: TNF/TNFR1 ELISA assay; assay type: binding
T2 construct: purchased PeproTech
T2 sequence (P01375 77-233 limits assumed): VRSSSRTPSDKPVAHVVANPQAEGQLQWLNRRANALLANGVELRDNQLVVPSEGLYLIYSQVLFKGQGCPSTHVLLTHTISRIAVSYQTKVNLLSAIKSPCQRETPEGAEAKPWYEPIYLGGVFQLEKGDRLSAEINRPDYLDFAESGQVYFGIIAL
Procedure: 96-well plates were coated with 0.1 mg/mL recombinant soluble human TNFR1 (PeproTech) in PBS overnight at 4°C. […] After two consecutive rounds of washes, plates were incubated with a rabbit anti-human-TNF antibody (provided by Prof. W. A. Buurman, University of Maastricht) and an anti-rabbit secondary antibody conjugated with HRP (Vector Laboratories). Both incubations were for 1 h and were performed at room temperature. Following a last round of washes, the signal was finally developed using the TMB Substrate Kit (ThermoFisher Scientific) and was measured spectrophotometrically at 450 nm. Experiments were performed in triplicate. Having established that the selected compounds obstruct TNF function, and since TNF exerts its functions mainly through interacting with the TNFR1 receptor, a further test was performed to evaluate the effect of inhibition on this protein-receptor interaction.

[1] = Measurement of cytotoxicity in L929 cells (crystal violet); assay type: cell-based; settings: mouse, compound alone, read-out: L929 LC50
Procedure: L929 cells were seeded onto a 96-well plate (3x10^4 cells/well). After 24 h, cells were treated with the compounds at increasing concentrations. DMSO was used in the untreated control. The next day, a PBS-washing step was performed to remove dead cells. The remaining live cells were next fixed with methanol and stained with crystal violet. After solubilization with acetic acid, staining was quantified spectrophotometrically at 570 nm. Survival is expressed with respect to the untreated control. Experiments were performed in triplicate.

human RANKL = target: T3, human RANKL (Homo sapiens, UniProt O14788); assay: Cross-linking experiments, RANKL trimer formation; assay type: biochemical; settings: molar ratio of 1:1 relative to RANKL, BS3 cross-linking
T3 construct: purchased Peprotech
T3 sequence (O14788 143-317 limits assumed): T1 sequence (O14788 143-317)
Procedure: 100 ng of recombinant human TNF or RANKL (Peprotech) were incubated with the inhibitors for 30 min at room temperature and then subjected to cross-linking, using 4.8 mM BS3 (ThermoFisher Scientific) for 30 min at room temperature. The reaction was stopped by adding 1/10th volume of 1 M Tris-HCl, pH 7.5. Samples were then subjected to SDS-PAGE and western blotting using an anti human-TNF or RANKL antibody (both R&D Systems).
Human TNF or RANKL was incubated with T8 or T23, chemically cross-linked, and subjected to SDS-PAGE. This was followed by western blotting to detect the various TNF and RANKL multimers. Both inhibitors were used at a molar ratio of 4:1 relative to TNF and 1:1 relative to RANKL. Numbers indicate molecular weights in kDa; NC = non cross-linked control (no inhibitor, no cross-linking); CC = cross-linked control (no inhibitor).

[2] = Solubility with PEG3350 as co-solvent; assay type: physicochemical
Excerpt: PEG3350 was used as co-solvent in order to enhance inhibitors solubility and thus eliminate the possibility of aggregates formation. | column: Solubility (μM)

[3] = RANKL 0.5 μM, PEG3350 2.5%, 25 mM Tri-HCl, 100 mM NaCl pH 7.5, read-out: Binding affinity (Kd), RANKL
[4] = RANKL 0.5 μM, PEG3350 5%, 25 mM Tri-HCl, 100 mM NaCl pH 7.5, read-out: Binding affinity (Kd), RANKL
[5] = RANKL 1.5 μM, PEG3350 5%, 25 mM Tri-HCl, 100 mM NaCl pH 7.5, read-out: Binding affinity (Kd), RANKL
[6] = RANKL 2.5 μM, PEG3350 5%, 25 mM Tri-HCl, 100 mM NaCl pH 7.5, read-out: Binding affinity (Kd), RANKL
[7] = fluorescence assay, 25°C, 25 mM Tris-HCl, 100 mM NaCl, pH 7.5, 5% PEG3350, read-out: Kd (RANKL complexes)
[8] = 2.5% v/v PEG3350 as co-solvent, PEG3350 2.5% v/v
[9] = 5% v/v PEG3350 as co-solvent, aqueous with cosolvent or surfactant or cyclodextrin, PEG3350 5% v/v

Row | SMILES | Kd (RANKL; [3]) | Kd (RANKL; [4]) | Kd (RANKL; [5]) | Kd (RANKL; [6]) | 'n' value from Scatchard plot (ligand binding sites per protein molecule) (RANKL) | Kd (RANKL; [7]) | IC50 (TNF/TNFR1 interaction) | CC50 at 1 day [1] | formation of RANKL trimers (cross-linking, western blot) (human RANKL) | solubility [2, 8] | solubility [2, 9] | solubility ([2]; PEG3350 0% v/v) | Kd (RANKL; RANKL 0.5 μM, PEG3350 0%, 25 mM Tri-HCl, 100 mM NaCl pH 7.5, read-out: Binding affinity (Kd), RANKL)
1 | O=C(NNC(=NS(=O)(=O)c1ccc(-n2nc(C(F)(F)F)cc2-c2cccs2)cc1)N1CCCC1)c1ccc(Cl)cc1 [Compound T8, N-[(4-chlorobenzoyl)amino]-N'-[4-[5-thiophen-2-yl-3-(trifluoromethyl)pyrazol-1-yl]phenyl]sulfonylpyrrolidine-1-carboximidamide] | 6.15 ± 0.22 µM | 6.32 ± 0.62 µM | 6.55 ± 0.84 µM | 6.05 ± 0.37 µM | 1 | 6.3 ± 0.6 µM | 30 ± 2.3 µM | > 100 µM | obstruct the formation of active TNF and RANKL trimers | 32 µM (≈ 19.9 µg/mL) | 48 µM (≈ 29.9 µg/mL) | < 1 µM | –
2 | COc1cc(OC(C)=O)c(-c2cc(OC(C)=O)c(OC)cc2OC(C)=O)cc1OC(C)=O [Compound T23, [4-acetyloxy-2-(2,5-diacetyloxy-4-methoxyphenyl)-5-methoxyphenyl] acetate] | 7.44 ± 0.52 µM | 7.25 ± 0.44 µM | 7.62 ± 0.84 µM | 7.02 ± 0.33 µM | 1 | 7.3 ± 0.4 µM | 3 ± 0.1 µM | > 100 µM | obstruct the formation of active TNF and RANKL trimers | 88 µM | 117 µM | 36 µM | 7.02 ± 0.63 µM
